# Results as given in patent US20260209260A1, “VECTORIZED NHC IRIDIUM(III) COMPLEXES AND USE THEREOF IN PHOTODYNAMIC THERAPY AND/OR DIAGNOSTIC” (CENTRE NATIONAL DE LA RECHERCHE SCIENTIFIQUE, priority 2022, published 2026).
# Where “and” joins values, the source holds several entries; their conditions need not be identical. Equal entries are not always repeated. Where two headings read alike, the source gives them in different places. Marks after values point to notes of the source that are not given here.
# Experiments:
# [1] = tested on: T24 bladder cancer cells; assay: Cell viability assay (MTT), dark and blue light; format: cell-based, Human; conditions: for Photosensitizing index (PI) T24: dark vs blue light 458 nm
# Procedure, shortened: (§1)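 Tumor lines and non-tumor murine MC3T3 osteoblasts and NIH-3T3 fibroblasts were seeded overnight and treated with complexes at 0.1% (v/v) DMSO for 72 h. Light samples were irradiated 10 min after 8 h of dark incubation. Viability was measured by MTT absorbance at 570 nm.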
# [2] = tested on: A549 lung cancer cells; assay: Cell viability assay (MTT), dark and blue light; format: cell-based, Human; conditions: for SI (vs NIH-3T3) A549 Blue: blue light 458 nm; for Photosensitizing index (PI) A549: dark vs blue light 458 nm
# Procedure, shortened: as §1
# [3] = Luminescence emission spectra and quantum yield; format: physicochemical; conditions: for λem: CH2Cl2, room temperature, λexc 365 nm or 470 nm; for ΦP emission phosphorescence quantum yield: room temperature, reference POPOP in hexane or rhodamine B in ethanol
# Procedure, shortened: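 Spectrofluorometric fluorescence/phosphorescence emission spectra of the iridium(III) complexes recorded in CH2Cl2 at room temperature. Quantum yields by the Demas–Crosby relative method on solutions at RT, from integrated emission band areas versus a reference standard of known yield, corrected for solvent refractive index.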
# [4] = UV/Vis absorption spectra; format: physicochemical; conditions: room temperature, air-saturated CH2Cl2 or CH2Cl2/MeOH (1:1), 50 μM; ε in brackets, sh = shoulder
# Procedure: UV/Vis absorption spectra were recorded at RT on solutions contained in quartz cuvettes (optical pathlength 1 cm, Hellma®) with a PerkinElmer® UV/VIS/NIR spectrophotometer Lambda 950 and a PerkinElmer® detector UV/VIS/NIR Accessory 2D Detector Module.
# [5] = tested on: NIH-3T3 fibroblast cells (non-tumor); assay: Cell viability assay (MTT), dark and blue light; format: cell-based, Murine; conditions: for Photosensitizing index (PI) NIH-3T3: dark vs blue light 458 nm; for Photosensitizing index (PI): NIH-3T3, dark vs blue light
# Procedure, shortened: as §1
# [6] = tested on: MC3T3 osteoblast cells (non-tumor); assay: Cell viability assay (MTT), dark and blue light; format: cell-based, Murine; conditions: for Photosensitizing index (PI) MC3T3: dark vs blue light 458 nm; for Photosensitizing index (PI): MC3T3, dark vs blue light
# Procedure, shortened: as §1
# [7] = Lipophilicity: octanol-water partition coefficient, shake-flask method
# Procedure, shortened: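 Octanol and water mutually pre-saturated for 24 h; compound ([…] stock in aqueous phase) partitioned against equal volume n-octanol, mixed 15 min, phases separated by centrifugation.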
# [8] = Emission lifetime measurement; format: physicochemical
# Procedure, shortened: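 Emission lifetimes measured by time-correlated single-photon counting (0.5 ns time resolution), excitation from a D2 lamp and a 405 nm pulsed diode laser. Estimated error 5% on lifetime.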
# [9] = 8 h in the dark, blue light 458 nm 10 min, then dark up to 72 h, read-out: GI50 T24 Blue
# [10] = in the dark, 72 h, read-out: GI50 T24 Dark
# [11] = 8 h in the dark, blue light 458 nm 10 min, then dark up to 72 h, read-out: GI50 A549 Blue
# [12] = in the dark, 72 h, read-out: GI50 A549 Dark
# [13] = 8 h in the dark, blue light 458 nm 10 min, then dark up to 72 h, read-out: GI50 NIH-3T3 Blue
# [14] = in the dark, 72 h, read-out: GI50 NIH-3T3 Dark
# [15] = 8 h in the dark, blue light 458 nm 10 min, then dark up to 72 h, read-out: GI50 MC3T3 Blue
# [16] = in the dark, 72 h, read-out: GI50 MC3T3 Dark
# [17] = n-octanol/water, shake-flask, mean of at least three determinations
# [18] = NIH-3T3, blue light, read-out: GI50
# [19] = MC3T3, blue light, read-out: GI50
SMILES,"GI50 [1, 9] [µM]",Photosensitizing index (PI) T24 [1],"GI50 [1, 10] [µM]","GI50 [2, 11]",Photosensitizing index (PI) A549 [2],"GI50 [2, 12] [µM]",λem [3],ΦP emission phosphorescence quantum yield [3] [%],λmax (nm) ε (M^−1 · cm^−1) [4],"GI50 [5, 13]",Photosensitizing index (PI) NIH-3T3 [5],"GI50 [5, 14] [µM]","GI50 [6, 15] [µM]",Photosensitizing index (PI) MC3T3 [6],"GI50 [6, 16]",Log P [7],τ1 emission lifetime [8] [ns],"GI50 [5, 18] [µM]",Photosensitizing index (PI) [5],"GI50 ([5]; NIH-3T3, dark, read-out: GI50) [µM]",other results
COC(=O)c1ccc2[n+](c1)[Ir-3]13([c]4ccccc4-2)([c]2ccccc2-c2ccc(C(=O)OC)c[n+]21)[c]1n(CCCNC(=O)CCCC[C@@H]2SC[C@@H]4NC(=O)N[C@@H]42)cc[n+]1-c1cccc[n+]13.F[P-](F)(F)(F)(F)F [I-e],5.6,17.2,96,21.6 µM,5.0,107,511-550 nm,3.7,"310 (sh) (19500), 365 (sh) (4690), 432 (4155) nm (M^−1 · cm^−1)",135 µM,>1.9,> 250,41.1,1.4,58.8 µM and 56.8 µM,0.25 ± 0.04,224,–,–,–,SI (vs NIH-3T3) A549 Blue [2]: 6.3; SI (vs NIH-3T3) A549 Dark [2]: >2.3
F[P-](F)(F)(F)(F)F.O=C(CCCC[C@@H]1SC[C@@H]2NC(=O)N[C@@H]21)NCCCn1cc[n+]2[c]1[Ir-3]13([c]4ccccc4-c4ccc5ccccc5[n+]41)([c]1ccccc1-c1ccc4ccccc4[n+]13)[n+]1ccccc1-2 [I-g],1.1,16.9,18.6,1.5 µM,6.1,9.1,593-652 nm,<0.1,"336 (19000), 437 (4600) nm (M^−1 · cm^−1)",81.7 µM and 61.7 µM,1.8,110,31.4,1.8,85.2 µM and 55.2 µM,1.26 ± 0.04,203,–,–,–,SI (vs NIH-3T3) T24 Blue ([1]; blue light 458 nm): 58.1; SI (vs NIH-3T3) A549 Blue [2]: 41.1; SI (vs MC3T3) A549 Dark [2]: 6.1; SI (vs NIH-3T3) A549 Dark [2]: 12.1
F[P-](F)(F)(F)(F)F.O=C(CCCC[C@@H]1SC[C@@H]2NC(=O)N[C@@H]21)NCCCn1cc[n+]2[c]1[Ir-3]13([c]4ccccc4-c4c5ccccc5cc[n+]41)([c]1ccccc1-c1c4ccccc4cc[n+]13)[n+]1ccccc1-2 [I-h],0.58,24.0,13.9,0.8 µM and 0.6 µM,21.8,13.1,–,3.0,"337 (sh) (12520), 352 (sh) (11890), 380 (sh) (8100), 436 (4855) nm (M^−1 · cm^−1)",10.4 µM,9.7,101,5,8.4,42.2 µM,–,202,–,–,–,"SI (vs MC3T3) A549 Dark [2]: 3.2; Log P [7, 17]: 0.87 ± 0.02"
F[P-](F)(F)(F)(F)F.O=C(CCCC[C@@H]1SC[C@@H]2NC(=O)N[C@@H]21)NCCCn1cc[n+]2[c]1[Ir-3]13([c]4ccccc4-c4sc5ccccc5[n+]41)([c]1ccccc1-c1sc4ccccc4[n+]13)[n+]1ccccc1-2 [I-k],0.97,19.3,18.7,1.2 µM,10.2,12.2,–,7.0,"321 (25835), 372 (sh) (7480), 406 (6130) nm (M^−1 · cm^−1)",31.1 µM,2.4,75.8,19.2,1.3,25.8 µM,0.87 ± 0.03,322,–,–,–,SI (vs MC3T3) T24 Dark ([1]; dark): 1.4; SI (vs NIH-3T3) T24 Dark ([1]; dark): 4.1; SI (vs MC3T3) A549 Dark [2]: 2.1
F[P-](F)(F)(F)(F)F.O=C(O)CC[C@H](NC(=O)N[C@@H](CCCCNC(=O)CCn1cc[n+]2[c]1[Ir-3]13([c]4ccccc4-c4c5ccccc5cc[n+]41)([c]1ccccc1-c1c4ccccc4cc[n+]13)[n+]1ccccc1-2)C(=O)O)C(=O)O [III-h],–,–,–,–,–,–,628 nm,3.0,"336 (sh) (23695), 352 (sh) (22270), 378 (sh) (15520), 435 (9310) nm (M^−1 · cm^−1)",19 µM,–,> 100,8.3,–,52.4 µM,–,215,19,>5.3,> 100,"GI50 [6, 19]: 8.3 µM; Photosensitizing index (PI) [6]: 6.3; GI50 ([6]; MC3T3, dark, read-out: GI50): 52.4 µM; Log P [7, 17]: 0.88 ± 0.02"
F[P-](F)(F)(F)(F)F.O=C(O)CC[C@H](NC(=O)N[C@@H](CCCCNC(=O)CCn1cc[n+]2[c]1[Ir-3]13([c]4cccc5ccc6ccc[n+]1c6c45)([c]1cccc4ccc5ccc[n+]3c5c14)[n+]1ccccc1-2)C(=O)O)C(=O)O [III-i],–,–,–,–,–,–,548 nm,–,"317 (19830), 412 (5510) nm (M^−1 · cm^−1)",–,–,> 100,–,–,250 µM,0.60 ± 0.01,227,55.8,>1.8,> 100,"GI50 [6, 19]: 40.6 µM; Photosensitizing index (PI) [6]: 6.2; GI50 ([6]; MC3T3, dark, read-out: GI50): 250 µM"
F[P-](F)(F)(F)(F)F.O=C(O)CC[C@H](NC(=O)N[C@@H](CCCCNC(=O)CCn1cc[n+]2[c]1[Ir-3]13([c]4c(sc5ccccc45)-c4cccc[n+]41)([c]1c(sc4ccccc14)-c1cccc[n+]13)[n+]1ccccc1-2)C(=O)O)C(=O)O [III-j],–,–,–,–,–,–,–,3.0,"324 (26900), 343 (sh)^b (24560), 428 (10800) nm (M^−1 · cm^−1)",10.8 µM,–,> 100,12.5,–,–,−0.38 ± 0.03,197,10.8,>9.3,> 100,"GI50 [6, 19]: 12.5 µM; Photosensitizing index (PI) [6]: >20; GI50 ([6]; MC3T3, dark, read-out: GI50): > 250 µM"
F[P-](F)(F)(F)(F)F.O=C(O)CC[C@H](NC(=O)N[C@@H](CCCCNC(=O)CCn1cc[n+]2[c]1[Ir-3]13([c]4ccccc4-c4sc5ccccc5[n+]41)([c]1ccccc1-c1sc4ccccc4[n+]13)[n+]1ccccc1-2)C(=O)O)C(=O)O [III-k],–,–,–,–,–,–,–,6.1,"321 (39070), 370 (sh) (12560), 406 (10170) nm (M^−1 · cm^−1)",30 µM,–,> 100,33.8,–,95.1 µM,−0.14 ± 0.01,649,30,>3.3,> 100,"GI50 [6, 19]: 33.8 µM; Photosensitizing index (PI) [6]: 2.8; GI50 ([6]; MC3T3, dark, read-out: GI50): 95.1 µM"
